# Source: ChEMBL document CHEMBL1147706, “N-Alkyl-N-arylmethylpiperidin-4-amines: novel dual inhibitors of serotonin and norepinephrine reuptake” (Bioorg Med Chem Lett, 2006)
# Tests used:
# [1] = target: Sodium-dependent noradrenaline transporter (Homo sapiens, UniProt P23975); assay: Displacement of [3H]nisoxetine from NET
# [2] = target: T1, Sodium-dependent dopamine transporter (Homo sapiens, UniProt Q01959); assay: Displacement of [3H]WIN-35 from DAT
# [3] = target: Sodium-dependent serotonin transporter (Homo sapiens, UniProt P31645); assay: Displacement of [3H]citalopram from SERT
# [4] = target: T1, Sodium-dependent dopamine transporter; assay: Displacement of [3H]WIN-35 from DAT at 1 uM
# Sequence of Sodium-dependent serotonin transporter (P31645 whole entry): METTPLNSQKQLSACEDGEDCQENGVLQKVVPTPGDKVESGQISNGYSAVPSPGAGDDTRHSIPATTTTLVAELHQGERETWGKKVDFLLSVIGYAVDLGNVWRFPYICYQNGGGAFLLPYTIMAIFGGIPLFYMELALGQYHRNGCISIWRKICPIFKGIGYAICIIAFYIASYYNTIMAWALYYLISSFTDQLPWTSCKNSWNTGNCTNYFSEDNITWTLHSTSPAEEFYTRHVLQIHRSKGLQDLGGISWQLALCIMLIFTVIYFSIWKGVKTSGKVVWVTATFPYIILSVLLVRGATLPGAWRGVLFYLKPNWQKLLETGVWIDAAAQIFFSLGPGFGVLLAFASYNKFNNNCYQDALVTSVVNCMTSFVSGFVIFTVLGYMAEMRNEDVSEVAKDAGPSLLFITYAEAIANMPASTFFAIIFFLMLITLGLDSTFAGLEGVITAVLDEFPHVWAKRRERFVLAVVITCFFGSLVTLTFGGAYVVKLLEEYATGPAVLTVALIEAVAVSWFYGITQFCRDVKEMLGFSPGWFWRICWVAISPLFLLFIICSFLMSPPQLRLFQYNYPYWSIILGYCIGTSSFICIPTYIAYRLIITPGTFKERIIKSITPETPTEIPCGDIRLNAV
# Sequence of Sodium-dependent noradrenaline transporter (P23975 whole entry): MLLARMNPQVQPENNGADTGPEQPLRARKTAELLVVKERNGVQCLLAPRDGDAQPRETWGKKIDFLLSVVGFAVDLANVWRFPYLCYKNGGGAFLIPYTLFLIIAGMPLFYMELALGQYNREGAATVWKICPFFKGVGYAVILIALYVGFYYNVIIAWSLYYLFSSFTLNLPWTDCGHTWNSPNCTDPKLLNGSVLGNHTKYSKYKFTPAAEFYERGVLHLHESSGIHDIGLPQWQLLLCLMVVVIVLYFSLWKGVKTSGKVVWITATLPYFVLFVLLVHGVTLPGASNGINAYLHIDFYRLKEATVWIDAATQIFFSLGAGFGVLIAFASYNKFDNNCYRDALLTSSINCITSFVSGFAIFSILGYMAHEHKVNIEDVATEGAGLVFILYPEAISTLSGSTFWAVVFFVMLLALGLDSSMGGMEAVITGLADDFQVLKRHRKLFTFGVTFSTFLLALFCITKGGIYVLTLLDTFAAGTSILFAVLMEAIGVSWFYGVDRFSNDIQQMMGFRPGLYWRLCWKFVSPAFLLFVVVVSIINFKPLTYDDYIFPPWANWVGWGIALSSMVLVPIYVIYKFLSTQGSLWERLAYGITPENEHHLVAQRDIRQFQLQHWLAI
# T1 sequence (Q01959 whole entry): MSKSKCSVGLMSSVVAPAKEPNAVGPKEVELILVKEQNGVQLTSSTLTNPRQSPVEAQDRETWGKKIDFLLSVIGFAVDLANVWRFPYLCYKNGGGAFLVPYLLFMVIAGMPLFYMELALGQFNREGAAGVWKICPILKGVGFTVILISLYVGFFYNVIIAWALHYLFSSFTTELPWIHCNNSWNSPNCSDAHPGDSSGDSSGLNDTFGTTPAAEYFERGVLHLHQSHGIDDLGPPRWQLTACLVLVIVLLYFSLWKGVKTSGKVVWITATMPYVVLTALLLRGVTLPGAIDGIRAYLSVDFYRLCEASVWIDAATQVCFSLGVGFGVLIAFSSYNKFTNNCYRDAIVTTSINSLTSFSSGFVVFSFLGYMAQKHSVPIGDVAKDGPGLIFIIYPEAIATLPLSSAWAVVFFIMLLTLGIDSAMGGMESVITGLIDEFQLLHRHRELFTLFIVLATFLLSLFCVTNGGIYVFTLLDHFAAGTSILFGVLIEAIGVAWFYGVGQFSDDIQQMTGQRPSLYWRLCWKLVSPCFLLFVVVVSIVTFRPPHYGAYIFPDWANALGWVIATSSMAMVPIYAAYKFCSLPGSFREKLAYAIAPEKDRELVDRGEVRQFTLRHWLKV
SMILES,Ki [1],Ki [2],Ki [3],inhibition [4]
Cc1cccc(CN(CC(C)C)C2CCNCC2)c1,150 nM,98 nM,2.2 nM,
CC(C)CN(Cc1ccc(C(F)(F)F)cc1)C1CCNCC1,300 nM,,0.07 nM,
CC(C)CN(Cc1ccccc1F)C1CCNCC1,15 nM,330 nM,,
COc1ccccc1CN(CC(C)C)C1CCNCC1,145 nM,,15 nM,4%
CC(C)(C#N)CN(Cc1ccc(F)cc1C(F)(F)F)C1CCNCC1,15.9 nM,,4.2 nM,
N#CCCCN(Cc1ccc(F)cc1C(F)(F)F)C1CCNCC1,13.3 nM,,0.4 nM,10%
CN(Cc1ccccc1C(F)(F)F)C1CCNCC1,,,,3%
CC(C)CN(Cc1cccc(C#N)c1)C1CCNCC1,690 nM,201 nM,0.48 nM,
OCCN(Cc1ccc(F)cc1C(F)(F)F)C1CCNCC1,95.9 nM,,3.1 nM,-7%
CC(C)CN(Cc1cccc(C(F)(F)F)c1Cl)C1CCNCC1,420 nM,,0.48 nM,
CC(C)CN(Cc1cccc(C(F)(F)F)c1)C1CCNCC1,255 nM,,0.26 nM,
CC(C)CN(Cc1ccc(F)cc1F)C1CCNCC1,20 nM,580 nM,3.1 nM,
CC(C)(O)CCN(Cc1ccc(F)cc1C(F)(F)F)C1CCNCC1,,,5 nM,1.3%
Cc1ccc(CN(CC(C)C)C2CCNCC2)cc1,69 nM,,0.99 nM,
FC(F)(F)CN(Cc1ccccc1C(F)(F)F)C1CCNCC1,33 nM,,4.6 nM,
CC(C)CN(Cc1ccc(C#N)cc1)C1CCNCC1,190 nM,,0.28 nM,
N#CCCCN(Cc1ccccc1C(F)(F)F)C1CCNCC1,21 nM,,0.58 nM,

SMILES,Ki [1],Ki [2],Ki [3],inhibition [4]
CC(C)OCCN(Cc1ccc(F)cc1C(F)(F)F)C1CCNCC1,9.7 nM,,3 nM,5%
CC(C)CN(Cc1ccccc1C#N)C1CCNCC1,42 nM,,1.2 nM,
CCCCN(Cc1ccc(F)cc1C(F)(F)F)C1CCNCC1,8.3 nM,,1.3 nM,
FC(F)(F)OCCN(Cc1ccccc1C(F)(F)F)C1CCNCC1,51 nM,,17 nM,-8%
CCN(Cc1ccccc1C(F)(F)F)C1CCNCC1,61 nM,,8 nM,-2%
CC(C)CN(Cc1cccc(F)c1)C1CCNCC1,43 nM,86.5 nM,,
COCCN(Cc1ccccc1C(F)(F)F)C1CCNCC1,8.3 nM,,2.5 nM,4%
CCOCCN(Cc1ccc(F)cc1C(F)(F)F)C1CCNCC1,9.6 nM,,2.8 nM,-3%
CCC(CC)N(Cc1ccccc1C(F)(F)F)C1CCNCC1,86 nM,,6.8 nM,
FC(F)(F)CCN(Cc1ccccc1C(F)(F)F)C1CCNCC1,9.8 nM,,2.8 nM,
COc1ccc(F)cc1CN(CC(C)C)C1CCNCC1,42.1 nM,,1.4 nM,-2%
CC(C)CN(Cc1cc(C(F)(F)F)ccc1Cl)C1CCNCC1,175 nM,,9.6 nM,
COc1ccc(CN(CC(C)C)C2CCNCC2)c(OC)c1,1060 nM,,2.2 nM,1.8%
N#CCCN(Cc1ccc(F)cc1C(F)(F)F)C1CCNCC1,13.3 nM,,0.4 nM,-4%
CC(C)CN(Cc1ccc(F)cc1)C1CCNCC1,78 nM,200 nM,1.9 nM,
CC(C)CN(Cc1ccccc1)C1CCNCC1,91 nM,,8.4 nM,
CC(C)N(Cc1ccccc1C(F)(F)F)C1CCNCC1,26 nM,,5.6 nM,

# More lines, in order of falling Ki [1], values ahead:
Ki [1],Ki [2],Ki [3],inhibition [4],SMILES
7.1 nM,,2.2 nM,,CC(C)CN(Cc1ccccc1OC(F)(F)F)C1CCNCC1
6.8 nM,,2.2 nM,-8%,COCCCN(Cc1ccccc1C(F)(F)F)C1CCNCC1
6.5 nM,,0.4 nM,,Fc1ccc(CN(CC2CC2)C2CCNCC2)c(C(F)(F)F)c1 [listing 2 of 2 here]
6.5 nM,,2.2 nM,,CCCN(Cc1ccccc1C(F)(F)F)C1CCNCC1
6.2 nM,,0.7 nM,,CC(C)(C#N)CCN(Cc1ccc(F)cc1C(F)(F)F)C1CCNCC1
6.1 nM,,6.9 nM,,CCC(CC)CN(Cc1ccccc1C(F)(F)F)C1CCNCC1
6.1 nM,,0.8 nM,,Fc1ccc(CN(CC2CC2)C2CCNCC2)c(C(F)(F)F)c1 [listing 1 of 2 here]
6 nM,,1.5 nM,,FC(F)(F)c1ccccc1CN(CC1CC1)C1CCNCC1
6 nM,,4.1 nM,,CC(C)CN(Cc1c(F)cccc1C(F)(F)F)C1CCNCC1
5.5 nM,,2.1 nM,,CC(C)CN(Cc1cc(Cl)ccc1Cl)C1CCNCC1
5.4 nM,,1.1 nM,-7%,COCCCN(Cc1ccc(F)cc1C(F)(F)F)C1CCNCC1
5.1 nM,,1.5 nM,,CCCCN(Cc1ccccc1C(F)(F)F)C1CCNCC1
4.8 nM,,0.39 nM,,Cc1ccc(CN(CC(C)C)C2CCNCC2)c(C)c1
4.2 nM,,4 nM,-8%,CC(C)(O)CN(Cc1ccc(F)cc1C(F)(F)F)C1CCNCC1
4.1 nM,,3.6 nM,,FC(F)(F)c1ccccc1CN(C1CCCC1)C1CCNCC1
3.6 nM,,0.8 nM,,CCCN(Cc1ccc(F)cc1C(F)(F)F)C1CCNCC1
3.4 nM,,7.9 nM,,CC(C)CN(Cc1cc(F)ccc1C(F)(F)F)C1CCNCC1
3.3 nM,240 nM,1.5 nM,,Cc1ccccc1CN(CC(C)C)C1CCNCC1
3.3 nM,,1.1 nM,,CSc1ccccc1CN(CC(C)C)C1CCNCC1
3.2 nM,210 nM,1.4 nM,,CC(C)CN(Cc1ccccc1C(F)(F)F)C1CCNCC1
3.1 nM,,2.5 nM,,Fc1ccc(CN(CC2CCC2)C2CCNCC2)c(C(F)(F)F)c1
2.7 nM,160 nM,4.3 nM,,CC(C)(C)CN(Cc1ccccc1C(F)(F)F)C1CCNCC1
2.2 nM,120 nM,5.8 nM,,CC(C)CN(Cc1ccc(C(F)(F)F)cc1F)C1CCNCC1
2 nM,230 nM,0.96 nM,,CC(C)CN(Cc1ccc(Cl)cc1Cl)C1CCNCC1
1.8 nM,190 nM,0.3 nM,,CC(C)CN(Cc1ccc(F)cc1C(F)(F)F)C1CCNCC1
1.4 nM,83 nM,1.6 nM,,CC(C)CN(Cc1ccccc1Cl)C1CCNCC1
